Experimental data taken from article PMC8297402, “Trifluoromethyl-substituted 3,5-bis(arylidene)-4-piperidones as potential anti-hepatoma and anti-inflammation agents by inhibiting NF-кB activation” (Journal of Enzyme Inhibition and Medicinal Chemistry, 2021).

Legend:
SMMC-7721 = assay: Modified MTT cytotoxicity assay, SMMC-7721; type: cell-based, Human; settings: for SI (selectivity index) SMMC-7721: quotient of IC50 for normal (LO2) and malignant (SMMC-7721) cells
Outline: (§1)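 HepG2 grown in DMEM, SMMC-7721 and LO2 in RPMI 1640, each with 10% FBS; ~8 × 10^3 cells/well. Compounds at 0.3125-10 μg/mL for 24 h at 37 °C, then MTT for 4 h. IC50 as mean of three replicates.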

Bax = assay: Western blot, Bax expression in HepG2 cells; type: cell-based, Human; settings: HepG2, 1.0, 2.0, 4.0 μM, 24 h
Description: (§2) Primary antibodies (anti-Bax, Abcam, ab32503; anti-Bcl-2, Abcam, ab194583; anti-Cleaved caspase-3, Abcam, ab2302; anti-p65, Cell Signalling Technology, 8242S; anti-p-p65, Cell Signalling Technology, 3033S; anti-IκBα, Cell Signalling Technoligy, 4812S; anti-p-IκBα, Cell Signalling Technology, 2859S; anti-p38, Cell Signalling Technology, 8690S; anti-p-p38, Cell Signalling Technology, 4511S; anti-JNK, Cell Signalling Technology, 9258 T; anti-p-JNK, Santa Cruz Biotechnology, sc-6254; anti-GAPDH, Abcam, ab181602), and goat anti-rabbit IgG/HRP secondary antibodies (Cell Signalling Technology, 98164 s) were purchased and used according to the manufacturer’s instructions. HepG2 cell lines were incubated with different doses of BAP 16 (1.0, 2.0, 4.0 μM) for 24 h (Bax, Cleaved caspase-3, Bcl-2). RAW264.7 cells were incubated with BAP 16 for 1 h, then treated with LPS (1.0 μg/mL) for 30 min. Afterward cell extraction was performed and extracts were used for Western blot analysis. Next, 30 μg protein of cell lysates were separated by 12% SDS-PAGE gel. The proteins were then transferred onto nitrocellulose membranes. […] By using Quantity One software (Bio-Rad), western blotting results were quantified from more than three separate experiments.

[1] = Modified MTT cytotoxicity assay, normal heptical cell line LO2; type: cell-based, human; settings: human, LO2 cells (normal hepatic cell line), 24 h incubation
Outline: as §1

p-IκBα = assay: Western blot, LPS-stimulated phosphorylation of IκBα in RAW264.7 cells; type: cell-based, mouse; settings: RAW264.7, 1.0, 2.0, 4.0 μM, LPS 1.0 μg/mL 30 min
Description: as §2

RAW264.7 cell = assay: MTT toxicity pre-experiment on RAW264.7 macrophagocyte; type: cell-based, mouse
Outline: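 Cytotoxicity toward RAW264.7 macrophages determined by MTT assay with compounds at 5.0 μM, expressed as cell survival rate.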

C-Caspase-3 = assay: Western blot, C-Caspase-3 expression in HepG2 cells; type: cell-based, Human; settings: HepG2, 1.0, 2.0, 4.0 μM, 24 h
Description: as §2

p-p38 = assay: Western blot, LPS-induced phosphorylation of p38 in RAW264.7 cells; type: cell-based, mouse; settings: RAW264.7, 1.0, 2.0, 4.0 μM, LPS 1.0 μg/mL 30 min
Description: as §2

in vitro = type: cell-based; settings: human
Experimental: aThe letters SI refer to the selectivity index which is the quotient of the IC50 values for normal and […]
Preliminary safety evaluation of BAP 16
Toxicity test on normal non-liver cell lines: To validate the safety of BAP 16, one Human embryonic lung fibroblasts cell line (HFL1), one human embryonic kidney cell line (HEK293), and one human normal lung bronchial epithelial cell line (BEAS-2B) were tested using a modified MTT assay (Dojindo Laboratories, Tokyo, Japan). F12K medium containing 10% FBS was used for culturing the HFL1 cell line, DMEM medium containing 10% FBS and 1.5 g/L sodium bicarbonate was used for culturing the HEK293 cell line, and the BEAS-2B special medium was used for culturing BEAS-2B cell line. The remaining operations were consistent with the previous […]
human normal non-heptical cell lines (HFL1, HEK293 and BEAS-2B), which was similar to that of human normal heptical cell lines.
Table S2. Toxicity test of BAP 16 on normal non-heptical cell lines. […]
Acute Toxicity Studies: Animal experiments were reviewed and approved by the Binzhou Medical University Experimental Animal Committee. The acute toxicity study was investigated on the six-week-old female ICR mice (n = 30) weighing 18-22 grams (Jinan Pengyue Experimental Animal Breeding Co., Ltd.). Briefly, mice were randomly divided into three groups (n = 10/group) and administrated the BAP 16 or solvent. The three groups of mice were treated with intragastric administration of 300 mg/kg, 600 mg/kg of BAP 16 and vehicle (saline containing 0.5% CMC-Na) each day. The body weight of mice was recorded every day, and the toxicity and death of mice were monitored daily for up to day 14. On day 14, the surviving animals were dissected to observe whether the internal organs had visible tissue changes, and then the livers were taken for formaldehyde fixation, dehydration, embedding, sectioning, and HE staining. The cell images were taken using a light microscopy (Olympus, Tokyo, Japan).

A549 = assay: Modified MTT cytotoxicity assay, A549
Experimental: To further verify the anti-tumour activity, one human non-small cell lung cancer cell line (A549), one human ovarian cancer cell line (A2780), and one human normal heptical cell line (HHL-5) were screened by BAPs (4–30) using a modified MTT assay (Supporting Information). DOX and curcumin were selected as positive controls.
The optical density (OD) value of each well was measured on a
multi-well plate reader (TECAN, Mӓnnedorf, Switzerland ) at 570 nm.
Every IC 50 value was the average of three replicates.
Doxorubicin (DOX) and Curcumin were used as positive controls.

Structure (SMILES): O=C1C(=Cc2cccc(C(F)(F)F)c2)CN(S(=O)(=O)c2ccc(C(F)(F)F)cc2)CC1=Cc1cccc(C(F)(F)F)c1 [BAP 16]
- IC50 (SMMC-7721; Homo sapiens, SMMC-7721, 24 h, MTT, 24 h incubation, three replicates): ~1.2 µM
- SI (selectivity index) SMMC-7721 (SMMC-7721): ca. 14.8
- SI (selectivity index) SMMC-7721 (SMMC-7721; listed as 16): 14.8
- Expression of pro-apoptotic protein Bax (Bax): significantly increased
- IC50 at 24 h [1]: ~17.8 µM
- Expression level of p-IκBα (p-IκBα): significantly decreased in a dose-dependent manner
- Survival rate RAW264.7 cell (RAW264.7 cell; BAPs 5 μM): 88.6 ± 3.7%
- viability at 5 µM (RAW264.7 cell; Mus musculus, RAW264.7, BAPs 5 μM, read-out: Survival rate RAW264.7 cell): 88.6%
- Expression of pro-apoptotic protein C-Caspase-3 (C-Caspase-3): significantly increased
- Expression level of p-p38 (p-p38): significantly decreased
- IC50 (in vitro; Cytotoxicity IC50 BEAS-2B): 17.6 ± 2.53 µM
- IC50 (in vitro; Cytotoxicity IC50 HEK293): 7.19 ± 0.91 µM
- IC50 (in vitro; Cytotoxicity IC50 HFL1): 9.62 ± 1.52 µM
- IC50 (A549; Homo sapiens, A549, read-out: Cytotoxicity IC50 A549, MTT, non-small cell lung cancer cell line): 0.43 ± 0.08 µM
- SI (selectivity index) A549 (A549; quotient of IC50 for normal (HHL-5) and malignant (A549) cells): 14.4
